Assay results published in patent US12385042B2, “Cell-penetrating peptides” (VECTIOPEP OÜ, priority 2019, dated 2025).
Where a SMILES comes first, the peptide text is derived from it. Bridges are numbered along the chain shown (N, C = ends). Roman numbers before positions name the chains, in order. [ ]: non-standard residue; d: D form. The star is where a group is joined. Arachidoyl = CCCCCCCCCCCCCCCCCCCC(=O)*; Stearoyl = CCCCCCCCCCCCCCCCCC(=O)*; Orn = NCCC[C@H](N)C(=O)O

Experiments:
[1] = test system: murine blood coagulation factor VII mRNA; test: Gene downregulation in vivo (siFVII, mouse liver, qRT-PCR)
Experimental: For the gene downregulation studies male Balb/c, 2-4 month-old mice were used, with 2-5 mice per group. The CPP/siRNA complexes were formed at MR30 and for each mouse 1.6 mg/kg siRNA dose was used. Particle formulations were administered intravenously via tail vein injection, at 1.6 mg/kg siRNA dose. 48 h post treatment, liver tissues were harvested and snap-frozen for analyses. The tissues were homogenized using Precellys®24-Dual homogenization system (Bertin Technologies, France) with TRIzol reagent (Thermo Fisher Scientific). RNA was extracted according to TRIzol manufacturers protocol with slight modifications. RNA quality and concentration was assessed on 1.8% agarose gel and NanoDrop2000. From RNA complementary DNA was synthesized using SuperScript IV Reverse Transcriptase (Thermo Fisher Scientific) according to manufacturer's protocol. The synthesized cDNA was used for qPCR accompanied with 5× HOT FIREPol EvaGreen qPCR Supermix (Solis Biodyne, Estonia) according to manufacturer's protocol. The obtained data was analyzed using 2-ΔΔCT method and normalized to untreated mouse group (100%). siRNA against blood coagulation factor VII (siFVII) sense 5′-gga (2′F-U) (2′F-C) a (2′F-U) (2′F-C) (2′F-U) (2′F-C) aag (2′F-U) (2′F-C) (2′F-U) (2′F-U) a (2′F-C) T*T-3″ and antisense 5′-g (2′F-U) aaga (2′F-C) (2′F-U) (2′F-U) gaga (2′F-U) ga (2′F-U) (2′F-C) (2′F-C) T*T 3′. Primers for PCR (Mus blood coagulation factor VII) forward […] (SEQ ID NO:11), reverse: […] (SEQ ID NO:12) and (Mus Actin beta) forward: […] (SEQ ID NO: 13) and reverse: […] (SEQ ID NO:14). The siRNA and primers were synthesized by the same manufacturer (Metabion, Germany). Data was collected with ViiA 7 RT_PCR system and analysis based on […] and normalized to results from untreated mice.
As a control hydrodynamic injection of 600 ul of siRNA was used and untreated mice were included. All animal experiments and procedures were approved by the Estonian Laboratory Animal Ethics Committee (approvals no 81, dated Apr. 4, 2016, and 69 and 70, dated Feb. 9, 2011).

[2] = Fluorescent dye (PicoGreen) intercalation and heparin displacement assay of CPP/siRNA complexes; type: physicochemical; details: for accessibility of siRNA in complexes (dye intercalation): MR30, no heparin
Procedure, shortened: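 PicoGreen fluorescence (ex 492/em 535 nm) of CPP/siRNA complexes in water after 5 min with dye, reporting siRNA accessibility. In the displacement arm, complexes were first incubated with heparin at varying concentrations for 30 min at 37 °C before adding PicoGreen.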

[3] = Negative staining TEM of CPP/siRNA nanoparticles; type: physicochemical; details: CPP/siRNA complexes at MR30
Experimental: For the morphological analysis the CPP/siRNA complexes were assembled as described above at MR30. For negative staining, copper grids were covered with Formvar film and carbon layer using Leica EM ACE600 carbon coater (Leica Microsystems, Germany). Then, 10 μL of each sample was absorbed to the grids for 2 min and excess of solution was gently removed. Samples were then exposed to 2% aqueous uranyl acetate solution for 1 min. After removing excess stain with filter paper, the samples were allowed to air-dry. The samples were examined at 120 kV accelerating voltage on FEI Tecnai G2 Spirit electron microscope (FEI, The Netherlands).

[4] = test system: subcutaneous U87MG tumor xenograft; test: Biodistribution of CPP/Cy5-siRNA nanoparticles, U87 tumor; type: in vivo, mouse; details: peak at 3 h
Experimental: (§1) Human tumor xenografts (subcutaneous U87MG and HT-1080) were induced in mice (Hsd: Athymic Nude-Foxn1nu female, 2.5 month old, Harlan, UK). The xenografting was performed by implanting the cell suspension (1×10^6 cells in 100 ul volume of ice-cold DMEM without any supplements) subcutaneously to the flank.
(§2) At the appearance of tumor size of approx. 100 mm^3, mice were injected i.v. (via tail vein) with the CPP/siRNA complexes. Each animal received a single 200 ul i.v. injection of 20 ug Cy5-siRNA, formulated with CPPs at MR20 or MR40. As a control, 20 μg of un-complexed Cy5-labeled siRNA was administered. The biodistribution of Cy5-siRNA and CPP/Cy5-siRNA complexes was evaluated at different time points −0.5 h up to 6 h. For that, mice (n=2 in each treatment group) were imaged in vivo using IVIS Lumina II (CaliperLS, USA). Cy-5 fluorescence intensity values were acquired from the tumor region.

Proteinase K = target: T1, Proteinase K (Parengyodontium album, UniProt P06873); test: Stability of CPP/siRNA complexes to degradation by Proteinase K; type: physicochemical; details: Proteinase K >14.4 U per well
T1 construct: purchased Thermo Scientific, USA
Experimental: To assess protection of siRNA from enzymatic degradation, after addition of PG dilution and initial measurement to set a starting point, Proteinase K (Thermo Scientific, USA) was added (>14 U/ml, 20 ul of mixture per well containing dilution of 120 ul of enzyme in 1 ml), co-incubated with complexes and fluorescence was measured over a 10 h period.

U87 cells = test: MTS toxicity assay; type: cell-based, human
Experimental: Cell proliferation was determined with the CellTiter 96® Aqueous Non-Radioactive Cell Proliferation Assay (MTS) (Promega Biotech AB, Sweden) according to the manufacturer's instructions. For this 1×10^5 U87 cells were seeded 1 day prior to experiment on transparent 96-well plates. On experiment day, media was replaced with 90 ul of fresh media and to the cells complexes formed at MR30 (both with 25 nM and 100 nM final siRNA concentrations) or free peptide at the range of 0.5-4 uM final concentrations were added. Cells were treated with complexes for 20 h. MTS was added according to the manufacturer's protocol. The absorbance of formazan product was measured at 490 nm with Tecan Sunrise microplate absorbance reader (Tecan Group Ltd, Switzerland) and percentage of viable cells was calculated using GraphPad Prism software 5.0 (Graphpad Software, CA, USA).

[5] = test system: subcutaneous HT-1080 tumor xenograft; test: Biodistribution of CPP/Cy5-siRNA nanoparticles, HT-1080 tumor; type: in vivo, mouse; details: peak at 3 h
Experimental: as §1, §2

T1 sequence (P06873 106-384): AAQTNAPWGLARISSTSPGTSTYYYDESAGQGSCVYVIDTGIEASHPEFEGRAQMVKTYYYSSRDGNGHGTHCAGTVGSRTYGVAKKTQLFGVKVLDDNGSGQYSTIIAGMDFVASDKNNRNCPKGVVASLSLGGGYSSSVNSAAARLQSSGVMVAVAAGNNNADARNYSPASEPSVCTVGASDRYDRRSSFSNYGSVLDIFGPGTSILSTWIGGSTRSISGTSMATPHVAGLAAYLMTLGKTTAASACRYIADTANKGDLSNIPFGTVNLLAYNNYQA

| SMILES | RNA levels preserved compared to untreated mice ([1]; 1.6 mg/kg siFVII, 48 h, liver) | downregulation compared to siRNA treated group ([1]; 1.6 mg/kg siRNA) | downregulation compared to free siRNA and In vivo JetPEI at N/P6 ([1]; same 1.6 mg/kg dose) | downregulation of the target (FVII) in mouse liver ([1]; single i.v. injection, 1.6 mg/kg siRNA, MR30, 48 h, vs untreated mice) | accessibility of siRNA in complexes (dye intercalation) [2] | length or size of elongated particles, conglomerates or aggregates (TEM) [3] | nanoparticle diameter / size (TEM) [3] | peak accumulation in U87 tumor relative to naked Cy5-siRNA [4] | siRNA accessible ([2]; 0.5 mg/ml heparin, complexes pre-formed at MR30) | stability of complexes to heparin displacement (in words) ([2]; complexes pre-formed at MR30) | stability of complexes to proteinase K (in words) (Proteinase K) | concentration at which free peptide is toxic to cells (MTS) (U87 cells) | peak accumulation in HT-1080 tumor relative to naked Cy5-siRNA [5] |
| --- | --- | --- | --- | --- | --- | --- | --- | --- | --- | --- | --- | --- | --- |
| CCCCCCCCCCCCCCCCCCCC(=O)N[C@@H](Cc1c[nH]cn1)C(=O)N[C@@H](Cc1c[nH]cn1)C(=O)N[C@@H](Cc1c[nH]cn1)C(=O)N[C@@H](Cc1c[nH]cn1)C(=O)N[C@@H](Cc1ccc(O)cc1)C(=O)N[C@@H](Cc1c[nH]cn1)C(=O)N[C@@H](Cc1c[nH]cn1)C(=O)NCC(=O)NCCC[C@H](N)C(=O)N[C@H](C(=O)N[C@@H](CC(C)C)C(=O)N[C@@H](CC(C)C)C(=O)N[C@@H](CCCCN)C(=O)N[C@@H](C)C(=O)N[C@@H](CC(C)C)C(=O)N[C@@H](CCCCN)C(=O)N[C@@H](C)C(=O)N[C@@H](CC(C)C)C(=O)N[C@@H](C)C(=O)N[C@@H](CCCCN)C(=O)N[C@@H](C)C(=O)N[C@H](C(=O)N[C@@H](CC(C)C)C(N)=O)[C@@H](C)CC)[C@@H](C)CC [NF70] (I: H-[Orn]ILLKALKALAKAIL-NH2 / II: Arachidoyl-HHHHYHHG; amide I:1-II:C) | approximately 40% | 30% | higher downregulation effect | ~60% | low accessibility of siRNA | 40-80 nm | 30-40 nm | – | – | – | – | – | – |
| CCCCCCCCCCCCCCCCCC(=O)N[C@@H](Cc1c[nH]cn1)C(=O)N[C@@H](Cc1c[nH]cn1)C(=O)N[C@@H](Cc1ccc(O)cc1)C(=O)N[C@@H](Cc1c[nH]cn1)C(=O)N[C@@H](Cc1c[nH]cn1)C(=O)NCC(=O)NCCC[C@H](N)C(=O)N[C@H](C(=O)N[C@@H](CC(C)C)C(=O)N[C@@H](CC(C)C)C(=O)N[C@@H](CCCCN)C(=O)N[C@@H](C)C(=O)N[C@@H](CC(C)C)C(=O)N[C@@H](CCCCN)C(=O)N[C@@H](C)C(=O)N[C@@H](CC(C)C)C(=O)N[C@@H](C)C(=O)N[C@@H](CCCCN)C(=O)N[C@@H](C)C(=O)N[C@H](C(=O)N[C@@H](CC(C)C)C(N)=O)[C@@H](C)CC)[C@@H](C)CC [NF71] (I: H-[Orn]ILLKALKALAKAIL-NH2 / II: Stearoyl-HHYHHG; amide I:1-II:C) | – | – | – | – | low accessibility of siRNA | – | – | 27 fold | 17% | less resistant to heparin displacement than NF55/siRNA | only slightly more resistant than NF55/siRNA complexes | ≥ 5 µM | 37 fold |
